3 compounds from ChEMBL document CHEMBL2429821, “A Casein kinase 1/Checkpoint kinase 1 pyrazolo-pyridine protein kinase inhibitor as novel activator of the p53 pathway” (Bioorg Med Chem Lett, 2013) can be followed below.

The structures appear in SMILES notation. Calls of active or inactive are those of the source. No cut-off for these calls is given here.

Test [1] deals with T1, Casein kinase I/MDM2 (Homo sapiens) (UniProt Q00987+P48729). Briefly: Inhibition of CK1-MDM2 complex in human A375 cells assessed as increase in […] protein level at 0.2 to 40 uM after 24 hrs by immunoblotting analysis. Type of test: cell-based. The conditions noted are these: A-375. In general terms: A western blot detects proteins with antibodies after separation by electrophoresis.
T1 sequence (P48729 whole entry, looked up): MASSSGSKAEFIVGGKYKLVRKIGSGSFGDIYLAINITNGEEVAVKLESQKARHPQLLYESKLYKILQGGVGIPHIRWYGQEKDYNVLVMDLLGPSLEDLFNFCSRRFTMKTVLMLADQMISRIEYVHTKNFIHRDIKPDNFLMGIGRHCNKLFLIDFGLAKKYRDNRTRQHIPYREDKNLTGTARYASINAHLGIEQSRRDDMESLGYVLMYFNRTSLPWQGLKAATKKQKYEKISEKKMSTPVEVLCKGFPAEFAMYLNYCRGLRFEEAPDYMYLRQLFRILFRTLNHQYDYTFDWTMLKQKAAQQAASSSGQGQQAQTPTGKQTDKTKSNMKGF
T1 sequence (Q00987 whole entry, looked up): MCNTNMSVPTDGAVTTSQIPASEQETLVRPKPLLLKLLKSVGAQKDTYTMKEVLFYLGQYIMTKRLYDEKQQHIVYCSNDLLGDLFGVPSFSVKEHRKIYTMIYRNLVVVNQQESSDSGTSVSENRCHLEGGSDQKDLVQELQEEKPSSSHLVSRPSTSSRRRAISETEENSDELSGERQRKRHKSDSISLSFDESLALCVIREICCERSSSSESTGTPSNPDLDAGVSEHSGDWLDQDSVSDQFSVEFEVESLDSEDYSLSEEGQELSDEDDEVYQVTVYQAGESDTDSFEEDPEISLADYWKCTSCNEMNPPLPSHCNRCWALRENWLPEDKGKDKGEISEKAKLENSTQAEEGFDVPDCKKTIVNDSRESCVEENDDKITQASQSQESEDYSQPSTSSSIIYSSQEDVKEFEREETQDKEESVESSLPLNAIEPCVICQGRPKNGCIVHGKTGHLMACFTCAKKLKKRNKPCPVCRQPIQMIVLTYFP

In test [2] the target is T1, Casein kinase I/MDM2 (Homo sapiens). Briefly: Inhibition of CK1-MDM2 complex in human A375 cells assessed as effect on p21 protein level at 0.2 to 40 uM after 24 hrs by immunoblotting analysis. Conditions: A-375. Type of test: cell-based.
Test [3] shares this target. Briefly: Inhibition of CK1-MDM2 complex in human A375 cells assessed as decrease in MDM2 protein level at 0.2 to 40 uM after 24 hrs by immunoblotting analysis. Conditions: A-375. Type of test: cell-based.
Test [4] shares this target. Kind of test: Inhibition of CK1-MDM2 complex in human A375 cells assessed as increase in p53 protein level at 0.2 to 40 uM after 24 hrs by immunoblotting analysis. Type of test: cell-based. Conditions: A-375.
For test [5], the target named is Rho-associated protein kinase 2 (Rattus norvegicus) (UniProt Q62868). Briefly: Inhibition of rat ROCK2 assessed as residual activity at 25 uM relative to control.
Rho-associated protein kinase 2 (Rattus norvegicus), sequence (Q62868 whole entry, looked up): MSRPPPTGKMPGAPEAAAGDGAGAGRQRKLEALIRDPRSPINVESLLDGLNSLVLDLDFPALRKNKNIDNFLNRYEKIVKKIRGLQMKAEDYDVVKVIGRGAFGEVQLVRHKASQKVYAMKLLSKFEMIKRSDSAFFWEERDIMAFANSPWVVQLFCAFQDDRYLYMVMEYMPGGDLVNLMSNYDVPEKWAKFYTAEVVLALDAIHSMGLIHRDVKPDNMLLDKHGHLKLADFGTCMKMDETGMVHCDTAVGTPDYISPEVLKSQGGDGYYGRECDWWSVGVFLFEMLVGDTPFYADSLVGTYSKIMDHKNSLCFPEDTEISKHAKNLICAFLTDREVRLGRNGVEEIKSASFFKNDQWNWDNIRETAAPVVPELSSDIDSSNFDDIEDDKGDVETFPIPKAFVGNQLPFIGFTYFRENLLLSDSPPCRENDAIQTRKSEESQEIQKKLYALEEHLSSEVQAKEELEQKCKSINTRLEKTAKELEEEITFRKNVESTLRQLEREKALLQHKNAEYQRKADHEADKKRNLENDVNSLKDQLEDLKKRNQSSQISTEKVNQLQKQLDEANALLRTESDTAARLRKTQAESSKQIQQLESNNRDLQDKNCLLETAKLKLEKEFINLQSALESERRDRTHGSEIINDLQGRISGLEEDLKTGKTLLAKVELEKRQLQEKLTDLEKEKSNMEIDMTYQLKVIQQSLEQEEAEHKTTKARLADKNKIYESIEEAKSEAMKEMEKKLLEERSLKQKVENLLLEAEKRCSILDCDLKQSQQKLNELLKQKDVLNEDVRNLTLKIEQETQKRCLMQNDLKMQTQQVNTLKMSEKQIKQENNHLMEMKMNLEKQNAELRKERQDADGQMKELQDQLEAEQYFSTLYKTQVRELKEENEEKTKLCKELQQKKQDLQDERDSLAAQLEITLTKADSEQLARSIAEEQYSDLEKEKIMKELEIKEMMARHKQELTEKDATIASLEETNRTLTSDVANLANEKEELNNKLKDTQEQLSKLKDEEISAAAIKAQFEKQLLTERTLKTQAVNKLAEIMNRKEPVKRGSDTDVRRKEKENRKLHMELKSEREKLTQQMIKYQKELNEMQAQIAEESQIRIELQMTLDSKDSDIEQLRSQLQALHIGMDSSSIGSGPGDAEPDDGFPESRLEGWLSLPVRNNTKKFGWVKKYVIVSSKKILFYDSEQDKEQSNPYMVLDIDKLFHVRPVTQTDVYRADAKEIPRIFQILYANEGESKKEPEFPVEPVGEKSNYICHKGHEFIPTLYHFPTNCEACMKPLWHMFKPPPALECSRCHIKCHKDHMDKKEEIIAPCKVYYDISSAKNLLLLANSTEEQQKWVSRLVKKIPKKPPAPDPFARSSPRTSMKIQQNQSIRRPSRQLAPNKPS
For the next test, the species on record is Bos taurus. Kind of test: Inhibition of cow PKA assessed as residual activity at 25 uM relative to control.
The species named for test [6] is Rattus norvegicus. Briefly: Inhibition of rat AMPK assessed as residual activity at 25 uM relative to control.
Test [7] deals with Proto-oncogene tyrosine-protein kinase Src (Homo sapiens) (UniProt P12931). Briefly: Inhibition of human SRC assessed as residual activity at 25 uM relative to control.
Proto-oncogene tyrosine-protein kinase Src (Homo sapiens), sequence (P12931 2-536 limits assumed): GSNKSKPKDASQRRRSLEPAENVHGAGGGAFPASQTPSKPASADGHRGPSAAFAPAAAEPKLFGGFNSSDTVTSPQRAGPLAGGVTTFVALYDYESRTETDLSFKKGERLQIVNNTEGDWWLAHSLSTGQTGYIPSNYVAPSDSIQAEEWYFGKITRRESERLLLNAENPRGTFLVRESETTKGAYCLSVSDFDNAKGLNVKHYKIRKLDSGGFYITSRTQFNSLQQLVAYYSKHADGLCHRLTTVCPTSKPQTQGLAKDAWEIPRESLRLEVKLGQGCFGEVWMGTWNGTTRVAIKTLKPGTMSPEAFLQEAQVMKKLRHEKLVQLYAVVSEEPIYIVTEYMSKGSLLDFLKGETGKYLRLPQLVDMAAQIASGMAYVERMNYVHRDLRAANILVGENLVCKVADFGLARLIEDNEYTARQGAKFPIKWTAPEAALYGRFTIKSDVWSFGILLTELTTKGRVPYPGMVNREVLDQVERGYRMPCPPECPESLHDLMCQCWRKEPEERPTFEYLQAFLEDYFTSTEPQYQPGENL
The species named for test [8] is Oryctolagus cuniculus. Briefly: Inhibition of rabbit MKK1 assessed as residual activity at 25 uM relative to control.
The target in test [9] is Dual specificity tyrosine-phosphorylation-regulated kinase 1A (Rattus norvegicus) (UniProt Q63470). Kind of test: Inhibition of rat DYRK1alpha assessed as residual activity at 25 uM relative to control.
For test [10], the target named is Casein kinase I isoform delta (Rattus norvegicus) (UniProt Q06486). Kind of test: Inhibition of rat CK1delta assessed as residual activity at 25 uM relative to control.
Casein kinase I isoform delta (Rattus norvegicus), sequence (Q06486 whole entry, looked up, canonical isoform): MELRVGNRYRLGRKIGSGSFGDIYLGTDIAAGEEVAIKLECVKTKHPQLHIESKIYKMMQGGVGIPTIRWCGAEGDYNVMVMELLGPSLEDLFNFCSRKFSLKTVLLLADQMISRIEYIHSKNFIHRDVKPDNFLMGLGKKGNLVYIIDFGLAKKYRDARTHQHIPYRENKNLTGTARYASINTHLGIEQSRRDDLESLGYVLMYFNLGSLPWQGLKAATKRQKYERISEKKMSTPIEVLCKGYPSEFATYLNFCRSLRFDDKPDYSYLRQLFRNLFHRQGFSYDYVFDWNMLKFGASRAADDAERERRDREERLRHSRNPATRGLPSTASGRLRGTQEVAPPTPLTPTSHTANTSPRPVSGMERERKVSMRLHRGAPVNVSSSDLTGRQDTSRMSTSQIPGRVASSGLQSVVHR
Test [11] deals with Cyclin-dependent kinase 2 (Homo sapiens) (UniProt P24941). Briefly: Inhibition of human CDK2 assessed as residual activity at 25 uM relative to control.
Test [12] has as its system A-375. Briefly: Cell cycle arrest in human A375 cells assessed as accumulation at G2-M phase at 80 uM after 48 hrs by FACS flow cytometric analysis (reference value: 17.3%). Type of test: functional. A general note: A flow cytometer gives signals particle by particle.
Test [13] has as its system A-375. Kind of test: Cell cycle arrest in human A375 cells assessed as accumulation at S phase at 80 uM after 48 hrs by FACS flow cytometric analysis (reference value: 25.1%). Type of test: functional.
For test [14], the system named is A-375. Briefly: Cell cycle arrest in human A375 cells assessed as accumulation at sub-G1 phase at 80 uM after 48 hrs by FACS flow cytometric analysis (reference value: 2.17%). Type of test: functional.
In test [15] the test system is A-375. Kind of test: Cell cycle arrest in human A375 cells assessed as accumulation at G0-G1 phase at 80 uM after 48 hrs by FACS flow cytometric analysis (reference value: 55.4%). Type of test: functional.
The subject of test [16] is A-375. Kind of test: Cell cycle arrest in human A375 cells assessed as accumulation at G2-M phase at 40 uM after 48 hrs by FACS flow cytometric analysis (reference value: 17.3%). Type of test: functional.
For test [17], the system named is A-375. Kind of test: Cell cycle arrest in human A375 cells assessed as accumulation at S phase at 40 uM after 48 hrs by FACS flow cytometric analysis (reference value: 25.1%). Type of test: functional.
In test [18] the test system is A-375. Briefly: Cell cycle arrest in human A375 cells assessed as accumulation at G0-G1 phase at 40 uM after 48 hrs by FACS flow cytometric analysis (reference value: 55.4%). Type of test: functional.
Test [19] relates to A-375. Kind of test: Cell cycle arrest in human A375 cells assessed as accumulation at sub-G1 phase at 40 uM after 48 hrs by FACS flow cytometric analysis (reference value: 2.17%). Type of test: functional.
The test system of test [20] is A-375. Briefly: Cell cycle arrest in human A375 cells assessed as accumulation at S phase at 20 uM after 48 hrs by FACS flow cytometric analysis (reference value: 25.1%). Type of test: functional.
The test system of test [21] is A-375. Briefly: Cell cycle arrest in human A375 cells assessed as accumulation at G2-M phase at 20 uM after 48 hrs by FACS flow cytometric analysis (reference value: 17.3%). Type of test: functional.
Test [22] relates to A-375. Kind of test: Cell cycle arrest in human A375 cells assessed as accumulation at G0-G1 phase at 20 uM after 48 hrs by FACS flow cytometric analysis (reference value: 55.4%). Type of test: functional.
The test system of test [23] is A-375. Kind of test: Cell cycle arrest in human A375 cells assessed as accumulation at sub-G1 phase at 20 uM after 48 hrs by FACS flow cytometric analysis (reference value: 2.17%). Type of test: functional.
Test [24] has as its system A-375. Briefly: Cell cycle arrest in human A375 cells assessed as accumulation at G2-M phase at 10 uM after 48 hrs by FACS flow cytometric analysis (reference value: 17.3%). Type of test: functional.
Test [25] has as its system A-375. Kind of test: Cell cycle arrest in human A375 cells assessed as accumulation at S phase at 10 uM after 48 hrs by FACS flow cytometric analysis (reference value: 25.1%). Type of test: functional.
In test [26] the test system is A-375. Briefly: Cell cycle arrest in human A375 cells assessed as accumulation at G0-G1 phase at 10 uM after 48 hrs by FACS flow cytometric analysis (reference value: 55.4%). Type of test: functional.
For test [27], the system named is A-375. Kind of test: Cell cycle arrest in human A375 cells assessed as accumulation at sub-G1 phase at 10 uM after 48 hrs by FACS flow cytometric analysis (reference value: 2.17%). Type of test: functional.
In test [28] the test system is A-375. Kind of test: Cytotoxicity against human A375 cells assessed as reduction in cell number at 10 to 40 uM after 24 hrs by light microscopic analysis relative to control. Type of test: functional, cell-based.
Test [29] addresses Mitogen-activated protein kinase 14 (Homo sapiens, UniProt Q16539). Briefly: Inhibition of human p38alpha MAPK in presence of 50 uM ATP. Conditions: read-out: IC50.
The target in test [30] is Casein kinase I isoform delta (Rattus norvegicus, UniProt Q06486). Kind of test: Inhibition of rat CK1delta in presence of 20 uM ATP.
Casein kinase I isoform delta, sequence (Q06486 whole entry, canonical isoform): as the sequence (Q06486 whole entry, looked up, canonical isoform) above
The target in test [31] is T2, Serine/threonine-protein kinase Chk1 (Homo sapiens, UniProt O14757).
T2 sequence (O14757 whole entry): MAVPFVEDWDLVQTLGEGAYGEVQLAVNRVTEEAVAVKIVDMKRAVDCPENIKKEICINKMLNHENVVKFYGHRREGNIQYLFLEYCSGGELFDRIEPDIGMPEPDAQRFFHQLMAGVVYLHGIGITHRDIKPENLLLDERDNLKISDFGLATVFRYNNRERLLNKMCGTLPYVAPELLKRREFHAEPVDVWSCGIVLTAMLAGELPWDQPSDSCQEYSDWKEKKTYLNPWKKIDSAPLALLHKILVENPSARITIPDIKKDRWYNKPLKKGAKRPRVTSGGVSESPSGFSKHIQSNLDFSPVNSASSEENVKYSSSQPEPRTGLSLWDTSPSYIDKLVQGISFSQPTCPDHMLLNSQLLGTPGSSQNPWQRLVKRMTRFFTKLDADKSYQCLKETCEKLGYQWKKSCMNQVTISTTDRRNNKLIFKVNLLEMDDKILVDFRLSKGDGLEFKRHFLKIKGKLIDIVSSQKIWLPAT
Kind of test: Inhibition of human CHK1 in presence of 20 uM ATP.

For test [32], the target named is Rho-associated protein kinase 2 (Rattus norvegicus) (UniProt Q62868). Kind of test: Inhibition of rat ROCK2 assessed as residual activity at 10 uM relative to control.
The species entered for test [33] is Rattus norvegicus. Kind of test: Inhibition of rat AMPK assessed as residual activity at 10 uM relative to control.
Test [34] has as its target Proto-oncogene tyrosine-protein kinase Src (Homo sapiens) (UniProt P12931). Kind of test: Inhibition of human SRC assessed as residual activity at 10 uM relative to control.
The species entered for test [35] is Oryctolagus cuniculus. Briefly: Inhibition of rabbit MKK1 assessed as residual activity at 10 uM relative to control.
The target of test [36] is Dual specificity tyrosine-phosphorylation-regulated kinase 1A (Rattus norvegicus) (UniProt Q63470). Briefly: Inhibition of rat DYRK1alpha assessed as residual activity at 10 uM relative to control.
Test [37] concerns the target Casein kinase I isoform delta (Rattus norvegicus) (UniProt Q06486). Kind of test: Inhibition of rat CK1delta assessed as residual activity at 10 uM relative to control.
For test [38], the target named is Cyclin-dependent kinase 2 (Homo sapiens) (UniProt P24941). Kind of test: Inhibition of human CDK2 assessed as residual activity at 10 uM relative to control.

Mitogen-activated protein kinase 14, sequence (Q16539 whole entry, canonical isoform): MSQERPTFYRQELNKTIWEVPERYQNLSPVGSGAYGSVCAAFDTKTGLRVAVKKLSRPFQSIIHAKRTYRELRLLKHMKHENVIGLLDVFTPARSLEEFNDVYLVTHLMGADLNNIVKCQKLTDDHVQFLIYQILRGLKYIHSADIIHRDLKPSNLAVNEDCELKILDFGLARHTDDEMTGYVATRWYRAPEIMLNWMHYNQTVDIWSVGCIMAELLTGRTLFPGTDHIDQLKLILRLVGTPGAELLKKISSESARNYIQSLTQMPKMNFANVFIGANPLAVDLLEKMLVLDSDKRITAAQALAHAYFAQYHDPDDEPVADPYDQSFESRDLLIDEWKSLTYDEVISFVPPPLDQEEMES

As to `O=C(Nc1n[nH]c2ncc(-c3cccnc3)cc12)C1CCCC1`, the inhibition entry in test [1], in test [3] and in test [4] was “Active” throughout. For the same compound, the inhibition entry in test [2] was “inactive”.
On to `COc1cc(OC)c(C=C2C(=O)Nc3ccccc32)c(OC)c1`, for which the Activity turned out to be 78% in [5]; 82% in the test filed under Bos taurus; 71% in the test listed under Rattus norvegicus [6]; 70% in test [7]; 86% in the test listed under Oryctolagus cuniculus [8]; 73% in test [9]. Besides, the Activity worked out at 9% in test [10] and 83% in test [11].
As for `NC(=O)c1ccc(-c2nc(-c3ccc4c(c3)OCCO4)c(-c3ccccn3)[nH]2)cc1`, the Activity in the test on A-375 [12] turned out to be 4.9%; with A-375 [13], 9.33%; in the test with A-375 [14], 32.7%; in the test on A-375 [15] it was 52.9%; in the test on A-375 [16] it was 9.66%; in the test with A-375 [17] it was 24.3%. Also, the Activity in the test with A-375 [18] is listed as 43.1%; with A-375 [19], 22.3%; with A-375 [20] it was 31.9%; in the test with A-375 [21], 18.8%; in the test with A-375 [22], 41.9%; with A-375 [23] it was 6.96%. For the same compound, the Activity is 13.7% with A-375 [24]; 26.6% in the test on A-375 [25]; 55.4% in the test with A-375 [26]; 3.92% with A-375 [27]; 105% in test [32]; 98% in the test listed under Rattus norvegicus [33]. Further, the Activity was determined as 82% in test [34]; 93% in the test listed under Oryctolagus cuniculus [35]; 86% in [36]; 4% in test [37]; 113% in test [38]. For the same compound, in the test on A-375 [28], the result was Active. The IC50 – broadly, the concentration at which inhibition is half-maximal – in test [29] was 4150 nM; in [30], 353 nM; in test [31] it was “Not Active”.
